Reference: US10363251B2, “(+)-morphinans as antagonists of toll-like receptor 9 and therapeutic uses thereof” (Mallinckrodt LLC, priority 2009, dated 2019)
Entries after “also recorded” stand apart in the source; their conditions may differ.

Assays:
TLR9 = assay: IL-1β up-regulation in peritoneal macrophages by TLR9 agonist ODN2395; assay type: cell-based
Excerpt: TLR9 signalling involves activation of NF-κB and IRF downstream pathways. The (+)-morphinan inhibited both of these pathways following activation of TLR9 (but not activation of TLR4 or other receptors). The type C TLR9 agonist, ODN2395, and the TL4 agonist, LPS, both induce up-regulation of IL-1β in peritoneal macrophages via activation of NF-κB.

acute pancreatitis = assay: Caerulein-induced acute pancreatitis model; assay type: in vivo, mouse; details: 30 mg/kg subcutaneously, vs saline
Procedure: Acute pancreatitis can be induced in rodents by administration of caerulein, a CCK analog derived from derived from the Australian tree frog Litoria caerulea. To determine whether a (+)-morphinan could reduce the inflammation and/or consequences of pancreatitis, the following example was performed. Mice were administered subcutaneously an effective dose of caerulein and either saline or Cmpd II-78 (30 mg/kg). After the standard period of time, the mice were sacrificed. Pancreatic tissue sections were stained and examined for neutrophil infiltration, and pancreatic trypsin, serum amylase, and pancreatic caspase −1 activities were measure using standard assays.

[1] = tested on: chronic constriction injury (CCI) neuropathic pain model; assay: Mechanical allodynia (Von Frey) in chronic constriction injury (Bennett) model, Example 3; assay type: in vivo, rat; details: Day 14 post-surgery, 30 and 90 min post-dosing, vs vehicle; for Mechanical allodynia (50% allodynia threshold), left (affected) paw: (+)-naloxone.HCl 66.7 mg/kg S.C., Gabapentin 100 mg/kg I.P.
Excerpt: Neuropathic pain affects approximately 1% of the U.S. population and is extremely difficult to manage. Usually the pain is chronic, severe, and fails to respond to traditional analgesic drugs. Fortunately, one of the most widely used animal models for neuropathic pain closely mimics the pain endured by patients. In this model, termed the chronic constriction injury (CCI) or Bennett model, four closely spaced ligatures tied loosely around the sciatic nerve of a rat cause demyelination of the nerve, resulting in spontaneous pain, such as prolonged paw elevation and licking of the ligated paw. Induced pain in the nerve-injured limb can be measured using Von Frey filaments, applied to the plantar surface of the paw to test for responses to non-noxious tactile stimulation. The onset of this heightened mechanical allodynia is quite rapid and it persists for 2-3 months.
In this example, the CCI ligation was performed on the left sciatic nerve in three groups of rats. Von Frey testing of mechanical allodynia was performed on both paws on Day 14 to determine the analgesic efficacy of the test agent. The testing was performed pre-dosing, and at 30 and 90 minutes post-dosing.
The animals were allocated to treatment groups based on their baseline Von Frey data, measured prior to surgery. The mechanical allodynia scores for each group were reviewed to ensure that the mean values and standard deviation satisfied the assumption of homogeneity. Thirty-one (31) animals were used on the study. Thirty (30) animals were initially allocated to treatment groups, and the remaining […] animals were held as spares. One spare was then used to replace an animal that died during surgery. Body weights were taken one day after arrival, prior to surgery and weekly thereafter. On Day 14, after the final behavioral testing, the animals were euthanized by carbon dioxide asphyxiation. No necropsy was performed nor tissues collected.
All surgeries were performed under aseptic conditions. Prior to surgery, the rats were sedated using inhaled Isoflurane anesthetic. The left leg was shaved and prepped. The common sciatic nerve was exposed and freed from adherent tissue at mid-thigh by separating the muscle (biceps femoris) by blunt dissection. Proximal to the sciatic nerve's trifurcation; approximately 7 mm of nerve was freed from the adhering tissue. Four ligatures, approximately 1 mm apart, were tied loosely around the nerve using 6.0 chromic catgut. Each of the sutures was tied loosely with a square knot around the sciatic nerve. A brief twitch in the muscle surrounding the exposure was an indicator of the desired degree of constriction. The site was then closed using the appropriate suture material. Post-operative care and observations were carried out until the animal recovered consciousness.
The animals underwent a series of behavioral testing for neuropathic pain assessment. A Von Frey test of mechanical allodynia was performed on both hind paws prior to surgery to achieve a baseline measurement for randomization and then following surgery on Day 14 (test article efficacy) according to Table 4.
Twice prior to surgery, the animals were acclimated to the allodynia apparatus. This habituated the rats to the testing devices to familiarize them with the apparatus so they were calm at the time of testing. […] Animals were first habituated to the testing chamber so that they were calm enough for their pain threshold to be assessed. […]

Compound | IL-1β mRNA up-regulation (NF-κB pathway) (TLR9) | Neutrophil infiltration in the pancreas (acute pancreatitis) | Pancreatic caspase 1 activity (acute pancreatitis) | Pancreatic trypsin activity (acute pancreatitis) | Serum amylase (acute pancreatitis) | Mechanical allodynia (50% allodynia threshold), left (affected) paw ([1]; listed as (+)-naloxone) | Mechanical allodynia (50% allodynia threshold), left (affected) paw ([1]; listed as (+)-naloxone.HCl) | Mechanical allodynia (50% allodynia threshold), right (unaffected) paw [1]
CN[C@@H]1CC[C@]2(O)[C@@H]3Cc4ccc(O)c5c4[C@]2(CCN3CC2CC2)[C@@H]1O5 [II-78] | response was inhibited; also recorded: reduced both NFκB- and IRF-dependent pathways downstream of TLR9 | dramatically reduced; also recorded: reduced neutrophil infiltration in the pancreas | Significant reductions; also recorded: reduced pancreatic caspase 1 activity | Significant reductions; also recorded: reduced | Significant reductions; also recorded: reduced serum amylase |  |  | 
C=CCN1CC[C@]23c4c5ccc(O)c4O[C@H]2C(=O)CC[C@]3(O)[C@H]1C5 [(+)-Naloxone, (+)-naloxone] |  |  |  |  |  | effective at significantly reducing the allodynia | effective analgesic for reversing neuropathic pain | no significant group differences
